Source: ChEMBL document CHEMBL4699646, “Eleutheroside E Enhances the Long-Term Memory of Radiation-Damaged C. elegans through G-Protein-Coupled Receptor and Neuropeptide Signaling Pathways” (J Nat Prod, 2020)
Activity calls are given as the source filed them. No cut-off for these calls is given here.

Columns and labels:
Caenorhabditis elegans [1] = assay: Inhibition of neuropeptide pathway in radioactive-induced Caenorhabditis elegans N2 assessed as down regulation of nlp-23 mRNA expression preincubated for 24 hrs followed by gamma-radiation treatment and measured after 24 hrs qRT-PCR analysis; details: time 48.0 hrs
Caenorhabditis elegans [2] = assay: Inhibition of Gs-apha-coupled PKA pathway in radioactive-induced Caenorhabditis elegans N2 assessed as down regulation of gsa-1 mRNA expression preincubated for 24 hrs followed by gamma-radiation treatment and measured after 24 hrs qRT-PCR analysis; details: time 48.0 hrs
Caenorhabditis elegans [3] = assay: Inhibition of neuropeptide signaling pathway in radioactive-induced Caenorhabditis elegans N2 assessed as down regulation of npr-11 mRNA expression preincubated for 24 hrs followed by gamma-radiation treatment and measured after 24 hrs qRT-PCR analysis; details: time 48.0 hrs
Caenorhabditis elegans [4] = assay: Memory enhancement effect in radioactive-induced Caenorhabditis elegans assessed as increase in cAMP level preincubated for 24 hrs followed by gamma-radiation treatment and measured after 24 hrs; type: functional, organism-based; details: time 48.0 hrs
Caenorhabditis elegans [5] = assay: Inhibition of Gq-alpha-coupled PLC pathway in radioactive-induced Caenorhabditis elegans N2 assessed as down regulation of egl-8 mRNA expression preincubated for 24 hrs followed by gamma-radiation treatment and measured after 24 hrs qRT-PCR analysis; details: time 48.0 hrs
Caenorhabditis elegans [6] = assay: Inhibition of neuropeptide pathway in radioactive-induced Caenorhabditis elegans N2 assessed as down regulation of npr-2 mRNA expression preincubated for 24 hrs followed by gamma-radiation treatment and measured after 24 hrs qRT-PCR analysis; details: time 48.0 hrs
Caenorhabditis elegans [7] = assay: Activation of CREB in radioactive-induced Caenorhabditis elegans MY36 harboring [crh-1(tz2); Pmbr-1-mcherry::crh-1(mtIs18)] mutant assessed as increase in long-term memory preincubated for 24 hrs followed by gamma-radiation treatment and measured after 24 hrs; details: filed as activator, time 48.0 hrs
Caenorhabditis elegans [8] = assay: Inhibition of Gs-apha-coupled PKA pathway in radioactive-induced Caenorhabditis elegans N2 assessed as down regulation of kin-2 mRNA expression preincubated for 24 hrs followed by gamma-radiation treatment and measured after 24 hrs qRT-PCR analysis; details: time 48.0 hrs
Caenorhabditis elegans [9] = assay: Inhibition of cGMP signaling pathway in radioactive-induced Caenorhabditis elegans N2 assessed as down regulation of tax-4 mRNA expression preincubated for 24 hrs followed by gamma-radiation treatment and measured after 24 hrs qRT-PCR analysis; details: time 48.0 hrs
Caenorhabditis elegans [10] = assay: Inhibition of cGMP signaling pathway in radioactive-induced Caenorhabditis elegans N2 assessed as down regulation of odr-1 mRNA expression preincubated for 24 hrs followed by gamma-radiation treatment and measured after 24 hrs qRT-PCR analysis; details: time 48.0 hrs
Caenorhabditis elegans [11] = assay: Memory enhancement effect in radioactive-induced Caenorhabditis elegans RB1341 harboring […] mutant assessed as memory index preincubated for 24 hrs followed by gamma-radiation treatment and measured after 24 hrs; type: functional, organism-based; details: time 48.0 hrs
Caenorhabditis elegans [12] = assay: Memory enhancement effect in Caenorhabditis elegans N2 assessed as increase in long-term memory index at 0.1 mg/ml preincubated for 24 hrs followed by gamma-radiation treatment and measured after 24 hrs; type: functional, organism-based; details: time 48.0 hrs
Caenorhabditis elegans [13] = assay: Memory enhancement effect in radioactive-induced Caenorhabditis elegans harboring RNAi podr-1::unc-31 mutant assessed as memory index preincubated for 24 hrs followed by gamma-radiation treatment and measured after 24 hrs; type: functional, organism-based; details: time 48.0 hrs
Caenorhabditis elegans [14] = assay: Memory enhancement effect in radioactive-induced Caenorhabditis elegans MY66 harboring egl-30(n686);Podr-1-mcherry::egl-30(mtIs35)] mutant assessed as memory index preincubated for 24 hrs followed by gamma-radiation treatment and measured after 24 hrs; type: functional, organism-based; details: time 48.0 hrs
Caenorhabditis elegans [15] = assay: Activation of CREB in radioactive-induced Caenorhabditis elegans YT17 harboring crh-1(tz2) mutant assessed as increase in long-term memory preincubated for 24 hrs followed by gamma-radiation treatment and measured after 24 hrs; details: time 48.0 hrs
Caenorhabditis elegans [16] = assay: Inhibition of neuropeptide pathway in radioactive-induced Caenorhabditis elegans N2 assessed as down regulation of nlp-1 mRNA expression preincubated for 24 hrs followed by gamma-radiation treatment and measured after 24 hrs qRT-PCR analysis; details: time 48.0 hrs
Caenorhabditis elegans [17] = assay: Inhibition of cGMP signaling pathway in radioactive-induced Caenorhabditis elegans N2 assessed as down regulation of tax-2 mRNA expression preincubated for 24 hrs followed by gamma-radiation treatment and measured after 24 hrs qRT-PCR analysis; details: time 48.0 hrs
Caenorhabditis elegans [18] = assay: Protective activity against radioactive-induced Caenorhabditis elegans N2 at 0.05 to 0.2 mg/ml preincubated for 24 hrs followed by gamma-radiation treatment and measured after 24 hrs; type: functional, organism-based; details: dose mg/ml 0.05-0.2, time 48.0 hrs
Caenorhabditis elegans [19] = assay: Memory enhancement effect in radioactive-induced Caenorhabditis elegans MT1434 harboring egl-30(n686) mutant assessed as memory index preincubated for 24 hrs followed by gamma-radiation treatment and measured after 24 hrs; type: functional, organism-based; details: time 48.0 hrs
Caenorhabditis elegans [20] = assay: Protective activity against radioactive-induced Caenorhabditis elegans N2 assessed as body bends preincubated for 24 hrs followed by gamma-radiation treatment and measured after 24 hrs; type: functional, organism-based; details: time 48.0 hrs
Caenorhabditis elegans [21] = assay: Inhibition of neuropeptide pathway in radioactive-induced Caenorhabditis elegans N2 assessed as down regulation of nlp-5 mRNA expression preincubated for 24 hrs followed by gamma-radiation treatment and measured after 24 hrs qRT-PCR analysis; details: time 48.0 hrs
Caenorhabditis elegans [22] = assay: Protective activity against Butanone-induced Caenorhabditis elegans N2 assessed as chemotaxis index incubated for 1 hr; type: functional, organism-based
Caenorhabditis elegans [23] = assay: Activation of CREB in radioactive-induced Caenorhabditis elegans YT17 harboring crh-1(tz2) mutant assessed as reduction radiation-induced damage preincubated for 24 hrs followed by gamma-radiation treatment and measured after 24 hrs; details: time 48.0 hrs
Caenorhabditis elegans [24] = assay: Protective activity against radioactive-induced Caenorhabditis elegans N2 assessed as head thrashes preincubated for 24 hrs followed by gamma-radiation treatment and measured after 24 hrs; type: functional, organism-based; details: time 48.0 hrs
Caenorhabditis elegans [25] = assay: Inhibition of Gq-alpha-coupled PLC pathway in radioactive-induced Caenorhabditis elegans N2 assessed as up regulation of goa-1 mRNA expression preincubated for 24 hrs followed by gamma-radiation treatment and measured after 24 hrs qRT-PCR analysis; details: time 48.0 hrs
Caenorhabditis elegans [26] = assay: Memory enhancement effect in radioactive-induced Caenorhabditis elegans harboring RNAi egl8;egl-30(n686)ls(Podr-1-mcherry::egl-30) mutant assessed as memory index preincubated for 24 hrs followed by gamma-radiation treatment and measured after 24 hrs; type: functional, organism-based; details: time 48.0 hrs
Caenorhabditis elegans [27] = assay: Inhibition of Gq-alpha-coupled PLC pathway in radioactive-induced Caenorhabditis elegans N2 assessed as down regulation of egl-30 mRNA expression preincubated for 24 hrs followed by gamma-radiation treatment and measured after 24 hrs qRT-PCR analysis; details: time 48.0 hrs
Caenorhabditis elegans [28] = assay: Inhibition of cGMP signaling pathway in radioactive-induced Caenorhabditis elegans N2 assessed as down regulation of daf-11 mRNA expression preincubated for 24 hrs followed by gamma-radiation treatment and measured after 24 hrs qRT-PCR analysis; details: time 48.0 hrs

COc1cc([C@H]2OC[C@@H]3[C@@H]2CO[C@H]3c2cc(OC)c(O[C@@H]3O[C@H](CO)[C@@H](O)[C@H](O)[C@H]3O)c(OC)c2)cc(OC)c1O[C@@H]1O[C@H](CO)[C@@H](O)[C@H](O)[C@H]1O
inhibition (Caenorhabditis elegans [1]): Active | inhibition (Caenorhabditis elegans [2]): Active | inhibition (Caenorhabditis elegans [3]): Active | Activity (Caenorhabditis elegans [4]): Active | inhibition (Caenorhabditis elegans [5]): Active | inhibition (Caenorhabditis elegans [6]): Active | Activity (Caenorhabditis elegans [7]): Active | inhibition (Caenorhabditis elegans [8]): Active | inhibition (Caenorhabditis elegans [9]): inactive | inhibition (Caenorhabditis elegans [10]): inactive | Activity (Caenorhabditis elegans [11]): Active | Activity (Caenorhabditis elegans [12]): Active | Activity (Caenorhabditis elegans [13]): inactive | Activity (Caenorhabditis elegans [14]): Active | Activity (Caenorhabditis elegans [15]): inactive | inhibition (Caenorhabditis elegans [16]): Active | inhibition (Caenorhabditis elegans [17]): inactive | Activity (Caenorhabditis elegans [18]): inactive | Activity (Caenorhabditis elegans [19]): inactive | Activity (Caenorhabditis elegans [20]): inactive | inhibition (Caenorhabditis elegans [21]): Active | Activity (Caenorhabditis elegans [22]): inactive | Activity (Caenorhabditis elegans [23]): inactive | Activity (Caenorhabditis elegans [24]): inactive | inhibition (Caenorhabditis elegans [25]): Active | Activity (Caenorhabditis elegans [26]): inactive | inhibition (Caenorhabditis elegans [27]): Active | inhibition (Caenorhabditis elegans [28]): inactive
